Earlier results on 56 molecules are cited in PMC9788431, “Combination of Docking-Based and Pharmacophore-Based Virtual Screening Identifies Novel Agonists That Target the Urotensin Receptor” (Molecules, 2022).

SMILES strings stand for the structures. Values joined by “and” are separate entries in the source; they are usually repeats but may differ in a detail not shown here. Equal values may be shown once. Non-standard residues stand in square brackets, D forms with d. Residues, ends and D or L forms follow the SMILES beside them.

This data set addresses T1, UT receptor (Homo sapiens, UniProt Q9UKP6).
T1 construct: SNAP-tag; expressed in transfected cells; host or cells: 293A8 (HEK293A stably transfected with the UT receptor); inferred, the calcium-assay paragraph names no cells
T1 sequence (Q9UKP6 1-389): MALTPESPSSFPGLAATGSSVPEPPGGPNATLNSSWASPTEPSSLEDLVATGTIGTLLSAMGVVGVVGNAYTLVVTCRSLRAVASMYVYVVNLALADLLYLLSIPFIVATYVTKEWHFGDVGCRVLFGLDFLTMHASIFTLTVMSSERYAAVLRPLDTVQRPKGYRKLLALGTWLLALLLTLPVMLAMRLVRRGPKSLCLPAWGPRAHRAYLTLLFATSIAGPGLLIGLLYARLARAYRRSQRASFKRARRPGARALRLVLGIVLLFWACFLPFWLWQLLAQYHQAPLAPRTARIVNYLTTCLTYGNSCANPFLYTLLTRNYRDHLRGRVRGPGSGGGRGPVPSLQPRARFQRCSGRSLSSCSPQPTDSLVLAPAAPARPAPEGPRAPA
To be noted: agonist; Table S1 benchmarking ligands; ref ChEMBL database and others; cited from earlier work.
For the molecule `CC(C)[C@H](NC(=O)[C@H](CS)NC(=O)[C@H](Cc1ccc(O)cc1)NC(=O)[C@H](CCCCN)NC(=O)[C@H](Cc1c[nH]c2ccccc12)NC(=O)[C@H](Cc1ccccc1)NC(=O)[C@@H](N)CS)C(=O)O` [CHEMBL53181] (H-CFWKYCV-OH), the EC50 was 0.0018 µM.

Consider `CN(C)CCC(OC(=O)Nc1ccc(C(F)(F)F)cc1)c1ccc(Cl)cc1` (centres unmarked) [CHEMBL203051], for which the EC50 is 0.251 µM.

Regarding `CN(C)CCC(NC(=O)c1ccc(Oc2ccccc2)cc1)c1ccc(Cl)cc1` (centres unmarked) [CHEMBL203626], the EC50 is 0.0661 µM.

In the case of `CN(C)CCC(OC(=O)Nc1ccc2ccccc2c1)c1ccc(Cl)cc1` (centres unmarked) [CHEMBL203937], the EC50 was 0.525 µM.

Take `CN(C)CCC(NC(=O)c1ccc(C(F)(F)F)cc1)c1ccc(Cl)cc1` (centres unmarked) [CHEMBL204988]: the EC50 is 0.0776 µM.

As for `CN(C)CCC(NC(=O)Nc1ccc(C(C)(C)C)cc1)c1ccc(Cl)cc1` (centres unmarked) [CHEMBL205681], the EC50 was 0.275 µM.

Turning to `CN(C)CCC(OC(=O)c1ccc(-c2ccccc2)cc1)c1ccc(Cl)cc1` (centres unmarked) [CHEMBL205991], the EC50 is 0.525 µM.

For `CN(C)CCC(NC(=O)Nc1ccc2ccccc2c1)c1ccc(Cl)cc1` (centres unmarked) [CHEMBL206551], the EC50 is 0.288 µM.

On to `CN(C)CCC(NC(=O)Nc1ccc(-c2ccccc2)cc1)c1ccc(Cl)cc1` (centres unmarked) [CHEMBL206811], for which the EC50 was 0.145 µM.

Turning to `Cc1cc(C)c(C(=O)OC(CCN(C)C)c2ccc(Cl)cc2)cc1C` (centres unmarked) [CHEMBL206832], the EC50 is 0.468 µM.

For the molecule `CN(C)CC[C@H](NC(=O)c1ccc2ccccc2c1)c1ccc(Cl)cc1` [CHEMBL207783], the EC50 was 0.407 µM.

As to `CN(C)CC[C@H](NC(=O)c1ccc(-c2ccccc2)cc1)c1ccc(Cl)cc1` [CHEMBL207823], the EC50 is 0.0324 µM.

With `CC(C)[C@H](NC(=O)[C@H](CS)NC(=O)[C@H](Cc1ccc(O)cc1)NC(=O)[C@H](CCCCN)NC(=O)[C@H](Cc1c[nH]c2ccccc12)NC(=O)[C@H](Cc1ccccc1)NC(=O)[C@H](CS)NC(=O)[C@H](CC(=O)O)NC(=O)[C@H]1CCCN1)C(=O)O` [CHEMBL216349] (H-[dP]DCFWKYCV-OH), the EC50 is 0.0036 µM.

For `CN(C)CCC(NC(=O)/C=C/c1ccc(C(F)(F)F)cc1)c1ccc(Cl)cc1` (centres unmarked) [CHEMBL228470], the EC50 was 0.129 µM.

For the molecule `CN(C)CCC(NC(=O)C#Cc1ccccc1)c1ccc(Cl)cc1` (centres unmarked) [CHEMBL228471], the EC50 was 0.398 µM.

Take `CN(C)CCC(NC(=O)CCc1ccccc1)c1ccc2ccccc2c1` (centres unmarked) [CHEMBL229709]: the EC50 was 0.603 µM.

Turning to `CN(C)CCC(NC(=O)CCc1ccc(C(F)(F)F)cc1)c1ccc2ccccc2c1` (centres unmarked) [CHEMBL229710], the EC50 was 0.372 µM.

`CN(C)CCC(NC(=O)/C=C/c1ccc(C(F)(F)F)cc1)c1ccc2ccccc2c1` (centres unmarked) [CHEMBL229713]: the EC50 is 0.135 µM.

Take `COc1ccc(/C=C/C(=O)NC(CCN(C)C)c2ccc3ccccc3c2)cc1` (centres unmarked) [CHEMBL229714]: the EC50 is 0.38 µM.

On to `CN(C)CCC(NC(=O)C#Cc1ccccc1)c1ccc2ccccc2c1` (centres unmarked) [CHEMBL229764], for which the EC50 is 0.457 µM.

Take `Cc1ccc(C(CCN(C)C)NC(=O)/C=C/c2ccc(C(F)(F)F)cc2)cc1` (centres unmarked) [CHEMBL229923]: the EC50 was 0.437 µM.

`NCCCC[C@H](NC(=O)[C@H](Cc1c[nH]c2ccccc12)NC(=O)[C@H](Cc1ccccc1)NC(=O)[C@@H](N)CS)C(=O)N[C@@H](Cc1ccc(O)cc1)C(=O)N[C@@H](CS)C(N)=O` [CHEMBL298803] (H-CFWKYC-NH2): the EC50 is 0.0023 µM.

On to `CN(C)CCC(NC(=O)/C=C/c1ccccc1)c1ccc(Cl)cc1` (centres unmarked) [CHEMBL374817], for which the EC50 is 0.427 µM.

Turning to `Cc1cc2c(cc1C)C(=O)OC(CCN(C)C)(c1ccc(Cl)cc1)C2` (centres unmarked) [CHEMBL380346], the EC50 was 0.135 µM.

On to `CN(C)CCC(OC(=O)Nc1ccc(Oc2ccccc2)cc1)c1ccc(Cl)cc1` (centres unmarked) [CHEMBL383326], for which the EC50 was 0.191 µM.

Consider `CN(C)CCC(NC(=O)Nc1ccc(Oc2ccccc2)cc1)c1ccc(Cl)cc1` (centres unmarked) [CHEMBL383698], for which the EC50 was 0.11 µM.

For `C[C@@H](O)[C@H](NC(=O)[C@@H](N)CCC(=O)O)C(=O)N1CCC[C@@H]1C(=O)N[C@@H](CC(=O)O)C(=O)N[C@@H](CS)C(=O)N[C@@H](Cc1ccccc1)C(=O)N[C@@H](Cc1c[nH]c2ccccc12)C(=O)N[C@@H](CCCCN)C(=O)N[C@@H](Cc1ccc(O)cc1)C(=O)N[C@@H](CS)C(=O)O` [CHEMBL385616] (H-ET[dP]DCFWKYC-OH), the EC50 was 0.0018 µM.

As for `CC(C)[C@H](NC(=O)[C@H](CS)NC(=O)[C@H](Cc1ccc(O)cc1)NC(=O)[C@H](CCCCN)NC(=O)[C@@H](Cc1c[nH]c2ccccc12)NC(=O)[C@H](Cc1ccccc1)NC(=O)[C@H](CS)NC(=O)[C@H](CC(=O)O)NC(=O)[C@H]1CCCN1C(=O)[C@@H](NC(=O)[C@@H](N)CCC(=O)O)[C@@H](C)O)C(=O)O` [CHEMBL385962], the EC50 was 0.0038 µM.

`COc1ccc(/C=C/C(=O)NC(CCN(C)C)c2ccc(Cl)cc2)cc1` (centres unmarked) [CHEMBL387661]: the EC50 is 0.513 µM.

`CN(C)CCC(NC(=O)/C=C/c1ccccc1)c1ccc2ccccc2c1` (centres unmarked) [CHEMBL387694]: the EC50 is 0.589 µM.

For the molecule `CN(C)CCC(NC(=O)Cc1ccc(C(F)(F)F)cc1)c1ccc2ccccc2c1` (centres unmarked) [CHEMBL390792], the EC50 is 0.575 µM.

Turning to `CC(C)[C@H](NC(=O)[C@H](CS)NC(=O)[C@H](Cc1ccc(O)cc1)NC(=O)[C@H](CCCCN)NC(=O)[C@H](Cc1c[nH]c2ccccc12)NC(=O)[C@H](Cc1ccccc1)NC(=O)[C@H](CS)NC(=O)[C@H](CC(=O)O)NC(=O)[C@H]1CCCN1C(=O)[C@@H](NC(=O)[C@@H](N)CCC(=O)O)[C@@H](C)O)C(=O)O` [CHEMBL408106], the EC50 was 0.0025 µM.

As to `CC(C)[C@H](NC(=O)[C@H](CS)NC(=O)[C@H](Cc1ccc(O)cc1)NC(=O)[C@H](CCCCN)NC(=O)[C@H](Cc1c[nH]c2ccccc12)NC(=O)[C@H](CS)NC(=O)[C@H](CC(=O)O)NC(=O)[C@H]1CCCN1C(=O)[C@@H](NC(=O)[C@@H](N)CCC(=O)O)[C@@H](C)O)C(=O)O` [CHEMBL412753] (H-ET[dP]DCWKYCV-OH), the EC50 was 0.053 µM.

For the molecule `CC(C)[C@H](NC(=O)[C@H](CS)NC(=O)[C@H](Cc1ccc(O)cc1)NC(=O)[C@H](CCCCN)NC(=O)[C@H](Cc1c[nH]c2ccccc12)NC(=O)[C@H](Cc1ccccc1)NC(=O)[C@H](CS)NC(=O)[C@@H](N)CC(=O)O)C(=O)O` [CHEMBL414256] (H-DCFWKYCV-OH), the EC50 was 0.003 µM.

On to `CN(C)CCC(NC(=O)Nc1ccc(C(F)(F)F)cc1)c1ccc(Cl)cc1` (centres unmarked) [CHEMBL425592], for which the concentration for a half-maximal effect (EC50) is 0.117 µM.

For `CC(C)[C@H](NC(=O)[C@H](CS)NC(=O)[C@H](Cc1ccc(O)cc1)NC(=O)[C@H](CCCCN)NC(=O)[C@H](Cc1c[nH]c2ccccc12)NC(=O)[C@H](Cc1ccccc1)NC(=O)[C@H](CS)NC(=O)[C@H](CC(=O)O)NC(=O)[C@H]1CCCN1C(=O)[C@@H](N)[C@@H](C)O)C(=O)O` [CHEMBL427632] (H-T[dP]DCFWKYCV-OH), the EC50 is 0.0024 µM.

As to `CN(C)CCC1(c2ccc(Cl)cc2)Cc2ccccc2C(=O)O1` (centres unmarked) [CHEMBL535141], the EC50 was 0.251 µM and 0.316 µM.

For `CN(C)CCC(NC(=O)c1ccc(-c2ccc3ccccc3c2)cc1)c1ccc(Cl)cc1` (centres unmarked) [CHEMBL572391], the EC50 is 0.309 µM.

`Cc1ccc(C(CCN(C)C)NC(=O)c2cccc(-c3ccccc3)c2)cc1` (centres unmarked) [CHEMBL572392]: the EC50 was 0.813 µM.

Regarding `Cc1ccc(C(CCN(C)C)NC(=O)c2ccc(-c3ccccc3)cc2)cc1` (centres unmarked) [CHEMBL572398], the EC50 is 0.2 µM.

As to `CN(C)CCC(NC(=O)c1ccc(-c2ccc(Cl)cc2)cc1)c1ccc2ccccc2c1` (centres unmarked) [CHEMBL572439], the EC50 was 0.0437 µM.

Take `CO[C@@H](C(=O)N[C@@H](CCN(C)C)c1ccc2ccccc2c1)c1ccccc1` [CHEMBL572454]: the EC50 was 0.741 µM.

With `O=C(NC(CCN1CCCCC1)c1ccc(Cl)cc1)c1ccc(-c2ccccc2)cc1` (centres unmarked) [CHEMBL572467], the EC50 is 0.661 µM.

Turning to `CN(C)CCC(NC(=O)c1ccc(-c2ccc(Cl)cc2)cc1)c1ccc(Cl)cc1` (centres unmarked) [CHEMBL572882], the EC50 was 0.0759 µM.

As to `Cc1ccc(C(CCN(C)C)NC(=O)c2ccc(-c3ccc(Cl)cc3)cc2)cc1` (centres unmarked) [CHEMBL572883], the EC50 was 0.126 µM.

As for `CN(C)CC[C@H](NC(=O)c1ccc(-c2ccc(Cl)cc2)cc1)c1ccc2ccccc2c1` [CHEMBL573392], the EC50 is 0.0229 µM.

As for `COc1ccc(-c2ccc(C(=O)NC(CCN(C)C)c3ccc(Cl)cc3)cc2)cc1` (centres unmarked) [CHEMBL573569], the EC50 was 0.0741 µM.

On to `COc1ccc(-c2cccc(C(=O)NC(CCN(C)C)c3ccc4ccccc4c3)c2)cc1` (centres unmarked) [CHEMBL573574], for which the EC50 was 0.646 µM.

Turning to `CN(C)CCC(NC(=O)c1cccc(-c2ccc3ccccc3c2)c1)c1ccc(Cl)cc1` (centres unmarked) [CHEMBL573575], the EC50 was 0.363 µM.

As to `CN(C)CC[C@@H](NC(=O)c1ccc(-c2ccc(Cl)cc2)cc1)c1ccc2ccccc2c1` [CHEMBL573640], the EC50 is 0.457 µM.

Regarding `CN(C)CCC(NC(=O)c1ccc(-c2ccccc2)cc1)c1ccc2ccccc2c1` (centres unmarked) [CHEMBL574527], the 50% effective concentration (EC50) was 0.12 µM.

Consider `Cc1ccc(C(CCN(C)C)NC(=O)c2cccc(-c3ccc(Cl)cc3)c2)cc1` (centres unmarked) [CHEMBL574731], for which the EC50 is 0.646 µM.

As to `COc1ccc(-c2ccc(C(=O)NC(CCN(C)C)c3ccc(C)cc3)cc2)cc1` (centres unmarked) [CHEMBL575629], the EC50 is 0.347 µM.

For the molecule `Cc1ccc(C(CCN(C)C)NC(=O)c2ccc(-c3ccc4ccccc4c3)cc2)cc1` (centres unmarked) [CHEMBL575630], the half-maximal effective concentration (EC50) is 0.813 µM.

Turning to `CN(C)CCC(NC(=O)c1cccc(-c2ccccc2)c1)c1ccc2ccccc2c1` (centres unmarked) [CHEMBL575819], the EC50 was 0.537 µM.

Turning to `CN(C)CCCC(NC(=O)c1ccc(-c2ccccc2)cc1)c1ccc(Cl)cc1` (centres unmarked) [CHEMBL576746], the EC50 is 0.316 µM.
